The source of these data is patent EP2992879B1, “PHARMACEUTICAL COMPOSITION FOR […] OF MOTOR NEURONS AND USE THEREOF” (China Medical University, priority 2012, dated 2014).

Test [1] deals with SOD1-G93A transgenic mice. Put plainly: In vivo analysis: survival of SOD1-G93A transgenic mice. The following applies: 60-day-old SOD1-G93A transgenic mice, oral administration, 500 mg/kg-body weight once daily; for Survival days: n = 8, untreated control 127 ± 6.11, 500 mg/kg. An excerpt:
It has been known that about 20% of amyotrophic lateral sclerosis patients were associated with mutations in the gene that encodes Cu/Zn superoxide dismutase enzyme (SOD1), and G93A was the major mutation site. […] A SOD1-G93A transgenic mouse will show the symptoms of amyotrophic lateral sclerosis within about 90±5 days postnatal and will die within about 125±5 days postnatal.
This example used the above SOD1-G93A transgenic mice as the object of study to perform in vivo analysis. SOD1-G93A transgenic mice (60-day-old) were treated with butylidenephthalide (purchased from ECHO Chemical) by oral administration, with a dosage of 500 mg/ kg-body weight once daily, wherein the unit "mg/kg-body weight" means the dosage required per kg-body weight. […]

In test [2] the test system is LC3-II. Put plainly: Cellular experiment: Western blotting of LC3-II in NSCs after H2O2 stimulation of autophagy. Type of test: cell-based, mouse. Particulars: 10 µg/mL for 12 hours, then H2O2 (2500 µM/mL) for 12 hours. The procedure:
Cellular experiment was performed by using NSCs (neural stem cells) which can differentiate into mouse motor neurons to imitate mouse motor neurons.
NSCs were incubated in a culture dish (10 cm in diameter). The cells were washed with PBS when grown to a density of 60% confluence, and treated with different concentrations of butylidenephthalide for 12 hours. The cells were then treated with H2O2 (2500 µM/mL) for 12 hours to stimulate the autophagy of cells. Then, the cells were collected and the proteins were extracted, and the protein expression level of LC3-II in NSC was analyzed by SDS-PAGE and Western blotting.

In test [3] the test system is SOD1-G93A transgenic mice. Put plainly: In vivo analysis: BBB Locomotor Rating Scale of the hind limbs. Particulars: oral 500 mg/kg-body weight once daily from day 60. The procedure: SOD1-G93A transgenic mice (60-day-old) were treated with butylidenephthalide by oral administration, with a dosage of 500 mg/ kg-body weight once daily. After the mice were treated for 30 days, the hind limbs of the mice were examined by BBB scale (Basso, Beattie, and Bresnahan (BBB) Locomotor Rating Scale). The BBB scale of the hind limbs of normal mice was 21 points, while the BBB scale of disease-progressed SOD1-G93A transgenic mice decreased from 21 to 0 points, wherein the lower scale represents a more severe action disorder in the mice. BBB scale is used to record the drug efficiency.

The subject of test [4] is LC3-II. Put plainly: Western blotting of autophagy biomarker in spinal cord. The test is classed as in vivo, mice. Particulars: cervical, thoracic and lumbar spinal cord, compared with untreated control; oral 500 mg/kg-body weight once daily; β-actin internal control. How it is done: SOD1-G93A transgenic mice (60-day-old) were treated with butylidenephthalide by oral administration, with a dosage of 500 mg/ kg-body weight once daily. It has been indicated by research that SOD1-G93A transgenic mice lost its spinal motor neurons because of the significant increase of autophagy during the last phase of amyotrophic lateral sclerosis (which can be seen in In vivo optical imaging of motor neuron autophagy in a mouse model of amyotrophic lateral sclerosis. Autophagy 7:9, 1-8; September 2011, which is entirely incorporated hereinto by reference). Therefore, in this example, the SOD1-G93A transgenic mice in experimental group were sacrificed in extremis to collect their spinal cord, and the proteins were extracted from the spinal cord to perform Western blotting and to analyze the protein biomarker of autophagy, LC3-II, which was used to determine whether autophagy occurred in the lumbar spinal motor neurons of the mice, wherein β-actin was used as an internal control.
For orientation: In western blotting, separated proteins are transferred to a membrane and probed.

Test [5] concerns SOD1-G93A transgenic mice. Put plainly: Histochemical staining (hematoxylin and eosin): count of spinal motor neurons. The test is classed as in vivo. The following applies: spinal cord, mice sacrificed in extremis. The procedure: SOD1-G93A transgenic mice (60-day-old) were treated with butylidenephthalide by oral administration, with a dosage of 500 mg/ kg-body weight once daily. The SOD1-G93A transgenic mice in the experimental group were sacrificed in extremis, and the spinal cord was collected to perform hematoxylin and eosin stain. The number of motor neurons in the spinal cord was observed and counted by using a microscope, and the data was compared with that of the untreated control group.

Take `CCCC=C1OC(=O)c2ccccc21` [butylidenephthalide]: the “life lengthened as compared to the untreated control group” value in test [1] is listed as “about 22 ± 2 days”. Moreover, the results for the Survival days result in test [1] and in test [1] (listed as n-BP) were “about 149 ± 4.39 days” and 149 ± 4.39 days, respectively. For the same compound, the “protein expression level of LC3-II in NSC” value in the test with LC3-II [2] is listed as “decrease the protein expression level of LC3-II”. Also, the “BBB scale of the hind limbs” value in test [3] (after 135 days (decreased rapidly)) fell in the range of 16 to 0 points; in test [3] (from 125 to 135 days (decreased slowly), normal mice 21 points, control fell from 19 to 0 after 110 days), 21 to 16 points. The “protein expression level of LC3-II and pLC3-II” value with LC3-II [4] was “significantly decreased”. For the same compound, the “The number of motor neurons” value in test [5] (oral 500 mg/kg-body weight once daily from day 60, control 3 ± 3.1) is reported as 24; in test [5] (oral 500 mg/kg-body weight once daily from day 60, control 3 ± 3.1, listed as n-BP) it was 24 ± 4.2.
